Patent publication US8927717B1, “Thiochromeno[2,3-c]quinolin-12-one derivatives, preparation method and application thereof” (National Defense Medical Center, priority 2014, dated 2015)

How the values were obtained:
Assay type in all cases: cell-based
CCRF-CEM = tested on: CCRF-CEM
HL-60(TB) = tested on: HL-60(TB)
K-562 = tested on: K-562
MOLT-4 = tested on: MOLT-4
SR = tested on: SR
A549/ATCC = tested on: A549/ATCC
HOP-62 = tested on: HOP-62
NCI-H23 = conditions: Non-small cell lung cancer; 10^−5 molar; 48 hours; SRB
NCI-H460 = tested on: NCI-H460
NCI-H522 = tested on: NCI-H522
COLO 205 = tested on: COLO 205
HCT-116 = tested on: HCT-116
HCT-15 = tested on: HCT-15
HT29 = tested on: HT29
KM12 = test: cells
SW-620 = tested on: SW-620
SNB-19 = tested on: SNB-19
SNB-75 = tested on: SNB-75
LOX IMVI = tested on: LOX IMVI
M14 = conditions: Homo sapiens; M14; five dose
[1] = Leukemia, 10^−5 molar, 48 hours, SRB
[2] = Homo sapiens, A549/ATCC, five dose
[3] = Non-small cell lung cancer, 10^−5 molar, 48 hours, SRB
[4] = Homo sapiens, HOP-62, five dose
[5] = Homo sapiens, NCI-H460, five dose
[6] = Homo sapiens, NCI-H522, five dose
[7] = Colon cancer, 10^−5 molar, 48 hours, SRB
[8] = Homo sapiens, COLO 205, five dose
[9] = Homo sapiens, HCT-116, five dose
[10] = Homo sapiens, HCT-15, five dose
[11] = Homo sapiens, HT-29, HT29, five dose
[12] = Homo sapiens, SW-620, five dose
[13] = CNS cancer, 10^−5 molar, 48 hours, SRB
[14] = Homo sapiens, SNB-19, five dose
[15] = Homo sapiens, SNB-75, five dose
[16] = Homo sapiens, LOX IMVI, five dose

CCNc1nc2ccccc2c2c(=O)c3cc(Cl)ccc3sc12 [Compound N2, 10-Chloro-6-ethylamino-12H-thiochromeno[2,3-c]quinolin-12-one]
TGI (CCRF-CEM; CCRF-CEM, five dose): >100 µM | GI50 (CCRF-CEM; Homo sapiens, CCRF-CEM, five dose): > 100 µM | CC50 (CCRF-CEM; Homo sapiens, CCRF-CEM, five dose, read-out: LC50 (the source's name)): > 100 µM | Growth percent CCRF-CEM (CCRF-CEM; [1]): 88.62% | TGI (HL-60(TB); HL-60(TB), five dose): >100 µM | GI50 (HL-60(TB); Homo sapiens, HL-60(TB), five dose): > 100 µM | CC50 (HL-60(TB); Homo sapiens, HL-60(TB), five dose, read-out: LC50 (the source's name)): > 100 µM | Growth percent HL-60(TB) (HL-60(TB); [1]): 103.33% | GI50 (K-562; Homo sapiens, K562, K-562, five dose): > 100 µM | CC50 (K-562; Homo sapiens, K562, K-562, five dose, read-out: LC50 (the source's name)): > 100 µM | TGI (K-562; K-562, five dose): >100 µM | Growth percent K-562 (K-562; [1]): 77.52% | GI50 (MOLT-4; Homo sapiens, MOLT-4, five dose): > 100 µM | CC50 (MOLT-4; Homo sapiens, MOLT-4, five dose, read-out: LC50 (the source's name)): > 100 µM | Growth percent MOLT-4 (MOLT-4; [1]): 92.27% | TGI (MOLT-4; MOLT-4, five dose): >100 µM | GI50 (SR; Homo sapiens, SR, five dose): > 100 µM | LC50 (50% lethal concentration) (SR; Homo sapiens, SR, five dose): > 100 µM | Growth percent SR (SR; [1]): 84.32% | TGI (SR; SR, five dose): >100 µM | TGI (A549/ATCC; A549/ATCC, five dose): >100 µM | GI50 (A549/ATCC; [2]): 48.1 µM | LC50 (A549/ATCC; [2]): > 100 µM | Growth percent A549/ATCC (A549/ATCC; [3]): 61.84% | TGI (HOP-62; HOP-62, five dose): 35.20 µM | GI50 (HOP-62; [4]): 13.3 µM | LC50 (lethal concentration 50) (HOP-62; [4]): 93.1 µM | Growth percent HOP-62 (HOP-62; [3]): 57.49% | Growth percent NCI-H23 (NCI-H23): 86.29% | GI50 (NCI-H460; [5]): > 100 µM | LC50 (NCI-H460; [5]): > 100 µM | TGI (NCI-H460; NCI-H460, five dose): >100 µM | Growth percent NCI-H460 (NCI-H460; [3]): 53.33% | GI50 (NCI-H522; [6]): 24.8 µM | LC50 (concentration causing 50% net cell kill) (NCI-H522; [6]): > 100 µM | TGI (NCI-H522; NCI-H522, five dose): >100 µM | Growth percent NCI-H522 (NCI-H522; [3]): 80.75% | TGI (COLO 205; COLO 205, five dose): >100 µM | Growth percent COLO 205 (COLO 205; [7]): 82.36% | GI50 (COLO 205; [8]): > 100 µM | LC50 (COLO 205; [8]): > 100 µM | Growth percent HCT-116 (HCT-116; [7]): 48.13% | TGI (HCT-116; HCT-116, five dose): >100 µM | GI50 (HCT-116; [9]): 6.31 µM | LC50 (concentration killing 50% of cells) (HCT-116; [9]): > 100 µM | Growth percent HCT-15 (HCT-15; [7]): 79.72% | TGI (HCT-15; HCT-15, five dose): >100 µM | GI50 (HCT-15; [10]): > 100 µM | LC50 (HCT-15; [10]): > 100 µM | Growth percent HT29 (HT29; [7]): 68.21% | TGI (HT29; HT29, five dose): >100 µM | GI50 (HT29; [11]): > 100 µM | LC50 (concentration killing 50% of cells) (HT29; [11]): > 100 µM | Growth percent KM12 (KM12; [7]): 85.79% | GI50 (KM12; Homo sapiens, KM12, five dose): > 100 µM | LC50 (KM12; Homo sapiens, KM12, five dose): > 100 µM | TGI (KM12; KM12, five dose): >100 µM | Growth percent SW-620 (SW-620; [7]): 84.65% | GI50 (SW-620; [12]): > 100 µM | LC50 (SW-620; [12]): > 100 µM | TGI (SW-620; SW-620, five dose): >100 µM | Growth percent SNB-19 (SNB-19; [13]): 84.19% | GI50 (SNB-19; [14]): 26.6 µM | LC50 (concentration killing 50% of cells) (SNB-19; [14]): > 100 µM | TGI (SNB-19; SNB-19, five dose): 81.10 µM | Growth percent SNB-75 (SNB-75; [13]): 12.12% | GI50 (SNB-75; [15]): 4.96 µM | LC50 (SNB-75; [15]): 60.2 µM | TGI (SNB-75; SNB-75, five dose): 22.00 µM | GI50 (LOX IMVI; [16]): > 100 µM | LC50 (LOX IMVI; [16]): > 100 µM | TGI (LOX IMVI; LOX IMVI, five dose): >100 µM | Growth percent LOX IMVI (LOX IMVI; Melanoma, 10^−5 molar, 48 hours, SRB): 80.61% | GI50 (M14): > 100 µM
